How the values were obtained:
Type in all cases: in vivo
Chilo suppressalis = experiment: Example B1: Chilo suppressalis (striped rice stemborer), artificial diet, L2 larvae; conditions: 144 h, application rate of 200 ppm, 6 days after infestation, read-out: control in at least one of the three categories (mortality, anti-feedant effect, or growth inhibition)
In short: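 Artificial diet was treated with aqueous test solutions made from 10,000 ppm DMSO stocks, dried, then infested with L2 larvae (6-8 per well). Mortality, anti-feeding effect and growth inhibition were scored against untreated samples 6 days after infestation, and control was counted when any category exceeded untreated.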

Diabrotica balteata = experiment: Example B2: Diabrotica balteata (corn root worm), maize sprouts, L2 larvae; conditions: 96 h, application rate of 200 ppm, 4 days after infestation, read-out: control in at least one of the two categories (mortality or growth inhibition)
Method: Example B2: Diabrotica balteata (Corn Root Worm)
Maize sprouts placed onto an agar layer in 24-well microtiter plates were treated with aqueous test solutions prepared from 10,000 ppm DMSO stock solutions by spraying. After drying, the plates were infested with L2 larvae (6 to 10 per well). The samples were assessed for mortality and growth inhibition in comparison to untreated samples 4 days after infestation.
The following compounds gave an effect of at least 80% control in at least one of the two categories (mortality or growth inhibition) at an application rate of 200 ppm: […]

Plutella xylostella = experiment: Example B8: Plutella xylostella (diamond back moth), artificial diet 24-well, eggs; conditions: 192 h, application rate of 200 ppm, 8 days after infestation, read-out: effect in at least one of the two categories (mortality or growth inhibition)
In short: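 Artificial diet in 24-well plates treated with aqueous dilutions of DMSO stock (10,000 ppm stock) and dried, then infested with Plutella eggs. Mortality and growth inhibition scored versus untreated samples 8 days after infestation.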

Spodoptera littoralis = experiment: Example B9: Spodoptera littoralis (Egyptian cotton leaf worm), cotton leaf discs, L1 larvae; conditions: foliar, 72 h, application rate of 200 ppm, 3 days after infestation, read-out: control in at least one of the three categories (mortality, anti-feedant effect, or growth inhibition)
In short: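 Cotton leaf discs on agar sprayed with aqueous test solutions from 10,000 ppm DMSO stocks, dried, then infested with five L1 larvae. Mortality, anti-feeding and growth inhibition scored against untreated samples 3 days after infestation.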

Myzus persicae = experiment: Example B7: Myzus persicae (green peach aphid), intrinsic activity, sucrose solution 24-well; conditions: 120 h, application rate of 12.5 ppm, 5 days after infestation, read-out: control (mortality)
Excerpt: Example B7: Myzus persicae (Green Peach Aphid). Intrinsic Activity
Test compounds prepared from 10,000 ppm DMSO stock solutions were applied by pipette into 24-well microtiter plates and mixed with sucrose solution. The plates were closed with a stretched Parafilm. A plastic stencil with 24 holes was placed onto the plate and infested pea seedlings were placed directly on the Parafilm. The infested plate was closed with a gel blotting paper and another plastic stencil and then turned upside down. The samples were assessed for mortality 5 days after infestation.
The following compounds gave an effect of at least 80% control at an application rate of 12.5 ppm: […]

C[C@H](NC(=O)Nc1cc(Cl)c(Cl)cc1Cl)c1ncnn1-c1ncccn1 [Example P43, 1-[(1S)-1-(2-pyrimidin-2-yl-1,2,4-triazol-3-yl)ethyl]-3-(2,4,5-trichlorophenyl)urea]
≥ 80%: percent control (mortality, anti-feedant effect or growth inhibition) at 200 ppm (Chilo suppressalis) | percent control (mortality or growth inhibition) at 200 ppm (Diabrotica balteata) | percent effect (mortality or growth inhibition) at 200 ppm (Plutella xylostella) | percent control (mortality, anti-feedant effect or growth inhibition) at 200 ppm (Spodoptera littoralis)

C[C@H](NC(=O)Nc1ccc(Br)cc1Br)c1ncnn1-c1ncccn1 [Example P130, 1-(2,4-dibromophenyl)-3-[(1S)-1-(2-pyrimidin-2-yl-1,2,4-triazol-3-yl)ethyl]urea]
≥ 80%: percent control (mortality, anti-feedant effect or growth inhibition) at 200 ppm (Chilo suppressalis) | mortality at 12.5 ppm (Myzus persicae) | percent effect (mortality or growth inhibition) at 200 ppm (Plutella xylostella) | percent control (mortality, anti-feedant effect or growth inhibition) at 200 ppm (Spodoptera littoralis)

C[C@H](NC(=O)Nc1cnc(C(F)(F)F)cc1Cl)c1nccnc1-c1ccc(C#N)cn1 [Example P250, 1-[4-chloro-6-(trifluoromethyl)-3-pyridyl]-3-[(1S)-1-[3-(5-cyano-2-pyridyl)pyrazin-2-yl]ethyl]urea]
≥ 80%: percent control (mortality, anti-feedant effect or growth inhibition) at 200 ppm (Chilo suppressalis) | mortality at 12.5 ppm (Myzus persicae) | percent effect (mortality or growth inhibition) at 200 ppm (Plutella xylostella) | percent control (mortality, anti-feedant effect or growth inhibition) at 200 ppm (Spodoptera littoralis)

C[C@@H](NC(=O)Nc1cc(OC(F)(F)C(F)F)c(Cl)cc1Cl)c1nccnc1-c1ncccn1 [Example P136, 1-[2,4-dichloro-5-(1,1,2,2-tetrafluoroethoxy)phenyl]-3-[(1R)-1-(3-pyrimidin-2-ylpyrazin-2-yl)ethyl]urea]
≥ 80%: percent control (mortality, anti-feedant effect or growth inhibition) at 200 ppm (Chilo suppressalis) | percent control (mortality or growth inhibition) at 200 ppm (Diabrotica balteata) | percent effect (mortality or growth inhibition) at 200 ppm (Plutella xylostella)

C[C@H](NC(=O)Nc1cc(F)c(C(F)(F)F)cc1F)c1ncnn1-c1ncccn1 [Example P332, 1-[2,5-difluoro-4-(trifluoromethyl)phenyl]-3-[(1S)-1-(2-pyrimidin-2-yl-1,2,4-triazol-3-yl)ethyl]urea]
≥ 80%: percent control (mortality, anti-feedant effect or growth inhibition) at 200 ppm (Chilo suppressalis) | mortality at 12.5 ppm (Myzus persicae) | percent control (mortality, anti-feedant effect or growth inhibition) at 200 ppm (Spodoptera littoralis)

C[C@H](NC(=O)Nc1cc(C(F)(F)F)c(Cl)cc1Cl)c1ncnn1-c1ncc(C#N)s1 [Example P140, 1-[(1S)-1-[2-(5-cyanothiazol-2-yl)-1,2,4-triazol-3-yl]ethyl]-3-[2,4-dichloro-5-(trifluoromethyl)phenyl]urea]
≥ 80%: percent control (mortality, anti-feedant effect or growth inhibition) at 200 ppm (Chilo suppressalis) | percent control (mortality or growth inhibition) at 200 ppm (Diabrotica balteata) | percent effect (mortality or growth inhibition) at 200 ppm (Plutella xylostella) | percent control (mortality, anti-feedant effect or growth inhibition) at 200 ppm (Spodoptera littoralis)

CC(NC(=O)Nc1ccc(Br)cc1OC(F)F)c1nccnc1-c1ncccn1 (stereo not drawn) [Example P241, 1-[4-bromo-2-(difluoromethoxy)phenyl]-3-[1-(3-pyrimidin-2-ylpyrazin-2-yl)ethyl]urea]
≥ 80%: percent control (mortality, anti-feedant effect or growth inhibition) at 200 ppm (Chilo suppressalis) | mortality at 12.5 ppm (Myzus persicae) | percent effect (mortality or growth inhibition) at 200 ppm (Plutella xylostella) | percent control (mortality, anti-feedant effect or growth inhibition) at 200 ppm (Spodoptera littoralis)

C[C@H](NC(=O)Nc1cc(Oc2ncccn2)c(Cl)cc1Cl)c1ncnn1-c1ncccn1 [Example P138, 1-(2,4-dichloro-5-pyrimidin-2-yloxy-phenyl)-3-[(1S)-1-(2-pyrimidin-2-yl-1,2,4-triazol-3-yl)ethyl]urea]
≥ 80%: percent control (mortality, anti-feedant effect or growth inhibition) at 200 ppm (Chilo suppressalis) | mortality at 12.5 ppm (Myzus persicae) | percent effect (mortality or growth inhibition) at 200 ppm (Plutella xylostella)

C[C@H](NC(=O)Nc1cc(Oc2ccc(C#N)cn2)c(Cl)cc1Cl)c1ncnn1-c1ncccn1 [Example P274, 1-[2,4-dichloro-5-[(5-cyano-2-pyridyl)oxy]phenyl]-3-[(1S)-1-(2-pyrimidin-2-yl-1,2,4-triazol-3-yl)ethyl]urea]
≥ 80%: percent control (mortality, anti-feedant effect or growth inhibition) at 200 ppm (Chilo suppressalis) | mortality at 12.5 ppm (Myzus persicae) | percent effect (mortality or growth inhibition) at 200 ppm (Plutella xylostella)

C[C@H](NC(=O)Nc1cc(OC(F)(F)F)c(F)cc1Br)c1ncnn1-c1ncccn1 [Example P316, 1-[2-bromo-4-fluoro-5-(trifluoromethoxy)phenyl]-3-[(1S)-1-(2-pyrimidin-2-yl-1,2,4-triazol-3-yl)ethyl]urea]
≥ 80%: percent control (mortality, anti-feedant effect or growth inhibition) at 200 ppm (Chilo suppressalis) | mortality at 12.5 ppm (Myzus persicae) | percent effect (mortality or growth inhibition) at 200 ppm (Plutella xylostella) | percent control (mortality, anti-feedant effect or growth inhibition) at 200 ppm (Spodoptera littoralis)

CC(NC(=O)Nc1cc(OC(F)(F)C(F)F)c(Cl)cc1Cl)c1nccnc1-n1nccn1 (stereo not drawn) [Example P258, 1-[2,4-dichloro-5-(1,1,2,2-tetrafluoroethoxy)phenyl]-3-[1-[3-(triazol-2-yl)pyrazin-2-yl]ethyl]urea]
≥ 80%: percent control (mortality, anti-feedant effect or growth inhibition) at 200 ppm (Chilo suppressalis) | percent control (mortality or growth inhibition) at 200 ppm (Diabrotica balteata) | percent effect (mortality or growth inhibition) at 200 ppm (Plutella xylostella)

COC(=O)c1cc(NC(=O)N[C@@H](C)c2ncnn2-c2ncccn2)c(C(F)(F)F)cc1Cl [Example P210, methyl 2-chloro-5-[[(1S)-1-(2-pyrimidin-2-yl-1,2,4-triazol-3-yl)ethyl]carbamoylamino]-4-(trifluoromethyl)benzoate]
≥ 80%: percent control (mortality, anti-feedant effect or growth inhibition) at 200 ppm (Chilo suppressalis) | mortality at 12.5 ppm (Myzus persicae) | percent effect (mortality or growth inhibition) at 200 ppm (Plutella xylostella)

CC(C)Oc1cc(NC(=O)N[C@@H](C)c2ncnn2-c2ncccn2)c(F)cc1Br [Example P221, 1-(4-bromo-2-fluoro-5-isopropoxy-phenyl)-3-[(1S)-1-(2-pyrimidin-2-yl-1,2,4-triazol-3-yl)ethyl]urea]
≥ 80%: percent control (mortality, anti-feedant effect or growth inhibition) at 200 ppm (Chilo suppressalis) | mortality at 12.5 ppm (Myzus persicae) | percent effect (mortality or growth inhibition) at 200 ppm (Plutella xylostella)

CSc1cc(Cl)c(C(F)(F)F)cc1NC(=O)N[C@@H](C)c1ncnn1-c1ncccn1 [Example P360, 1-[4-chloro-2-methylsulfanyl-5-(trifluoromethyl)phenyl]-3-[(1S)-1-(2-pyrimidin-2-yl-1,2,4-triazol-3-yl)ethyl]urea]
≥ 80%: percent control (mortality, anti-feedant effect or growth inhibition) at 200 ppm (Chilo suppressalis) | mortality at 12.5 ppm (Myzus persicae) | percent control (mortality, anti-feedant effect or growth inhibition) at 200 ppm (Spodoptera littoralis)

C[C@H](NC(=O)Nc1cc(F)c(Cl)cc1Cl)c1ncnn1-c1ncccn1 [Example P380, 1-(2,4-dichloro-5-fluoro-phenyl)-3-[(1S)-1-(2-pyrimidin-2-yl-1,2,4-triazol-3-yl)ethyl]urea]
≥ 80%: percent control (mortality, anti-feedant effect or growth inhibition) at 200 ppm (Chilo suppressalis) | mortality at 12.5 ppm (Myzus persicae) | percent effect (mortality or growth inhibition) at 200 ppm (Plutella xylostella) | percent control (mortality, anti-feedant effect or growth inhibition) at 200 ppm (Spodoptera littoralis)

C[C@H](NC(=O)Nc1cc2c(cc1Br)OC(F)(F)O2)c1ncnn1-c1ncccn1 [Example P79, 1-(6-bromo-2,2-difluoro-1,3-benzodioxol-5-yl)-3-[(1S)-1-(2-pyrimidin-2-yl-1,2,4-triazol-3-yl)ethyl]urea]
≥ 80%: percent control (mortality, anti-feedant effect or growth inhibition) at 200 ppm (Chilo suppressalis) | mortality at 12.5 ppm (Myzus persicae) | percent effect (mortality or growth inhibition) at 200 ppm (Plutella xylostella) | percent control (mortality, anti-feedant effect or growth inhibition) at 200 ppm (Spodoptera littoralis)

C[C@H](NC(=O)Nc1cc(C(F)(F)F)cnc1Cl)c1ncnn1-c1ncccn1 [Example P127, 1-[2-chloro-5-(trifluoromethyl)-3-pyridyl]-3-[(1S)-1-(2-pyrimidin-2-yl-1,2,4-triazol-3-yl)ethyl]urea]
≥ 80%: percent control (mortality, anti-feedant effect or growth inhibition) at 200 ppm (Chilo suppressalis) | mortality at 12.5 ppm (Myzus persicae) | percent effect (mortality or growth inhibition) at 200 ppm (Plutella xylostella) | percent control (mortality, anti-feedant effect or growth inhibition) at 200 ppm (Spodoptera littoralis)
